Measured values taken from patent US8309586B2, “Glucokinase activators and pharmaceutical compositions containing the same as an active ingredient” (LG Life Sciences Ltd., priority 2007, dated 2012).

The compounds below were run on male C57BL/6 mice (assay: Blood glucose lowering abilities after single oral administration in male C57BL/6 mouse). Settings: 30 mg/kg single oral dose, fed ad libitum, medium: 0.5% methyl cellulose distilled water solution.
Type: in vivo
Procedure: The glucokinase activators according to the present invention were orally administered in a single dose in the amount of 30 mg/kg body weight to male C57BL/6 mice for 24 h. The media were selected depending on their solubilities from distilled water, pH 1.2 HCl buffer solution, 0.5% methyl cellulose distilled water solution, 10% Gelucire/pH 1.2 HCl buffer solution (1/1). The glucokinase activators were dissolved in the selected media to the medium volume of 0.1 ml/10 g body weight on the basis of the body weight measured on the day of experiment.
Blood glucose was measured by cutting the tail vein before 1 h (time=−1) from the measurement of blood glucose, collecting blood from the tail vein at immediately before the administration of the glucokinase activator (time=0), and at 1, 2, 4, 8, 12, 24 h after administration, loading on the automatic glucometer (Accu-Chek® Active, Roche, USA), dropping 5 μl of the blood to a yellow pad of the Accu-Chek® Active glucose strip, and recording the measured value.
Mice involved in the experiment were divided into groups (n=10, in the case of media group n=4) on one day before the experiment so that each group has uniform average and standard deviation for blood glucose after 4 hour fasting. Mice were fed ad libitum.
The blood glucose lowering abilities in % of the representative compounds with respect to the 100% of media control were shown in the following Table 2.

Row | SMILES | Hypoglycemic ability (% medium): blood glucose AUC for 24 h with respect to 100% of media control
1 | CCOC(=O)C[C@@H]1CSC(c2cc3cc(F)cc(NC4CCCC4)c3[nH]2)=N1 [Example 38, [(R)-2-(7-cyclopentylamino-5-fluoro-1H-indol-2-yl)-4,5-dihydro-thiazol-4-yl]acetic acid ethyl ester] | 71%

Same assay, conditions: 30 mg/kg single oral dose, fed ad libitum, medium: distilled water

Row | SMILES | Hypoglycemic ability (% medium): blood glucose AUC for 24 h with respect to 100% of media control
2 | O=C(O)C[C@@H]1CSC(c2cc3cc(Br)cc(NC4CCCC4)c3[nH]2)=N1 [Example 33, [(R)-2-(5-bromo-7-cyclopentylamino-1H-indol-2-yl)-4,5-dihydro-thiazol-4-yl]acetic acid] | 81%
3 | Clc1cc(NC2CCCC2)c2[nH]c(C3=N[C@H](CCN4CCNCC4)CS3)cc2c1 [Example 96, {5-chloro-2-[(R)-4-(2-piperazin-1-yl-ethyl)-4,5-dihydro-thiazol-2-yl]-1H-indol-7-yl}-cyclopentyl-amine] | 81%
4 | CCOc1cc(NC2CCCC2)c2[nH]c(C3=N[C@H](CCC(=O)O)CS3)cc2c1 [Example 167, 3-[(R)-2-(7-cyclopentylamino-5-ethoxy-1H-indol-2-yl)-4,5-dihydro-thiazol-4-yl]-propionic acid] | 64%
5 | O=C(O)CC[C@@H]1CSC(c2cc3cccc(NC4CCCC4)c3[nH]2)=N1 [Example 164, 3-[(R)-2-(7-cyclopentylamino-1H-indol-2-yl)-4,5-dihydro-thiazol-4-yl]-propionic acid] | 73%
6 | O=C(O)C[C@@H]1CSC(c2cc3cccc(Oc4ccccc4)c3[nH]2)=N1 [Example 174, [(R)-2-(7-phenoxy-1H-indol-2-yl)-4,5-dihydro-thiazol-4-yl]-acetic acid] | 51%
7 | O=C(O)C[C@@H]1CSC(c2cc3cccc(NC4CCCC4)c3[nH]2)=N1 [Example 42, [(R)-2-(7-cyclopentylamino-1H-indol-2-yl)-4,5-dihydro-thiazol-4-yl]acetic acid] | 57%
8 | O=C(O)C[C@@H]1CSC(c2cc3cc(F)cc(NC4CCCC4)c3[nH]2)=N1 [Example 37, [(R)-2-(7-cyclopentylamino-5-fluoro-1H-indol-2-yl)-4,5-dihydro-thiazol-4-yl]acetic acid] | 67%

These compounds were tested on Glucokinase known as hexokinase IV (human GK isoform 1, pancreas form and human GK isoform 2, liver form) (assay: Glucokinase enzymatic activity assay (G6PDH-coupled, NADH absorbance at 340 nm)). Settings: 5 mM glucose, 1 mM ATP, 37 nM GK, 10 min at room temperature.
Type: biochemical
Summary of the method: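 His-tagged human GK isoform 1 (pancreas) or 2 (liver), E. coli-expressed and Ni-purified, 37 nM, with 5 mM glucose, 1 mM ATP, 1 mM NAD and G6PDH in 25 mM Hepes/KCl, 2 mM MgCl2, 1 mM DTT. Ran 10 min at room temperature, read as NADH at 340 nm. AC1.5 is the compound concentration giving 1.5-fold activity.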

Row | SMILES | AC1.5 (the compound concentration at which the enzymatic activity is increased by 1.5 times)
9 | O=C(O)CC[C@@H]1CSC(c2cc3cccc(NC4CCCC4)c3[nH]2)=N1 [Example 164, 3-[(R)-2-(7-cyclopentylamino-1H-indol-2-yl)-4,5-dihydro-thiazol-4-yl]-propionic acid] | 25 nM
10 | CCOC(=O)COC[C@@H]1CSC(c2cc3cc(F)cc(NC4CCCC4)c3[nH]2)=N1 [Example 170, [(R)-2-(7-cyclopentylamino-5-fluoro-1H-indol-2-yl)-4,5-dihydro-thiazol-4-ylmethoxy]-acetic acid ethyl ester] | 12 nM
11 | OCCC[C@@H]1CSC(c2cc3cc(Cl)cc(NC4CCOCC4)c3[nH]2)=N1 [Example 152, 3-{(R)-2-[5-chloro-7-(tetrahydro-pyran-4-ylamino)-1H-indol-2-yl]-4,5-dihydro-thiazol-4-yl}-propan-1-ol] | 14 nM
12 | NCC[C@@H]1CSC(c2cc3cc(F)cc(NC4CCCC4)c3[nH]2)=N1 [Example 124, {2-[(R)-4-(2-amino-ethyl)-4,5-dihydro-thiazol-2-yl]-5-fluoro-1H-indol-7-yl}-cyclopentyl-amine] | 24 nM
13 | COCC[C@@H]1CSC(c2cc3cccc(NC4CCCC4)c3[nH]2)=N1 [Example 141, cyclopentyl-{2-[(R)-4-(2-methoxy-ethyl)-4,5-dihydro-thiazol-2-yl]-1H-indol-7-yl}-amine] | 24 nM
14 | O=C(C[C@@H]1CSC(c2cc3cc(Cl)cc(NC4CCCC4)c3[nH]2)=N1)NCCCN1CCOCC1 [Example 75, 2-[(R)-2-(5-chloro-7-cyclopentylamino-1H-indol-2-yl)-4,5-dihydro-thiazol-4-yl]-N-(3-morpholin-4-yl-propyl)-acetamide] | 21 nM
15 | O=C(O)C[C@@H]1CSC(c2cc3cc(Oc4cccnc4)cc(NC4CCCC4)c3[nH]2)=N1 [Example 57, {(R)-2-[7-cyclopentylamino-5-(pyridin-3-yloxy)-1H-indol-2-yl]-4,5-dihydro-thiazol-4-yl}-acetic acid] | 21 nM
16 | COC(=O)C[C@@H]1CSC(c2cc3cc(OC)cc(NC4CCOCC4)c3[nH]2)=N1 [Example 50, {(R)-2-[5-methoxy-7-(tetrahydro-pyran-4-ylamino)-1H-indol-2-yl]-4,5-dihydro-thiazol-4-yl}-acetic acid methyl ester] | 28 nM
17 | c1cc(NC2CCCC2)c2[nH]c(C3=N[C@H](CN4CCCC4)CS3)cc2c1 [Example 15, cyclopentyl-[2-((R)-4-pyrrolidin-1-ylmethyl-4,5-dihydro-thiazol-2-yl)-1H-indol-7-yl]-amine] | 400 nM
18 | CNC(=O)C[C@@H]1CSC(c2cc3cccc(NC4CCCC4)c3[nH]2)=N1 [Example 90, 2-[(R)-2-(7-cyclopentylamino-1H-indol-2-yl)-4,5-dihydro-thiazol-4-yl]-N-methyl-acetamide] | 37 nM
19 | CN(C)C(=O)C[C@@H]1CSC(c2cc3cc(Cl)cc(NC4CCCC4)c3[nH]2)=N1 [Example 77, 2-[(R)-2-(5-chloro-7-cyclopentylamino-1H-indol-2-yl)-4,5-dihydro-thiazol-4-yl]-N,N-dimethyl-acetamide] | 27 nM
20 | CNC(=O)C[C@@H]1CSC(c2cc3cccc(NC4CCOCC4)c3[nH]2)=N1 [Example 92, N-methyl-2-{(R)-2-[7-(tetrahydro-pyran-4-ylamino)-1H-indol-2-yl]-4,5-dihydro-thiazol-4-yl}-acetamide] | 112 nM
21 | O=C(C[C@@H]1CSC(c2cc3cccc(NC4CCCC4)c3[nH]2)=N1)N1CCOCC1 [Example 91, 2-[(R)-2-(7-cyclopentylamino-1H-indol-2-yl)-4,5-dihydro-thiazol-4-yl]-1-morpholin-4-yl-ethanone] | 72 nM

Now from value to compound:

Row | AC1.5 (the compound concentration at which the enzymatic activity is increased by 1.5 times) | SMILES
22 | 18 nM | CCOC(=O)C[C@@H]1CSC(c2cc3cc(F)cc(NC4CCCC4)c3[nH]2)=N1 [Example 38, [(R)-2-(7-cyclopentylamino-5-fluoro-1H-indol-2-yl)-4,5-dihydro-thiazol-4-yl]acetic acid ethyl ester]
23 | 5 nM | Clc1cc(NC2CCCC2)c2[nH]c(C3=N[C@H](CCN4CCNCC4)CS3)cc2c1 [Example 96, {5-chloro-2-[(R)-4-(2-piperazin-1-yl-ethyl)-4,5-dihydro-thiazol-2-yl]-1H-indol-7-yl}-cyclopentyl-amine]
24 | 28 nM | CCOc1cc(NC2CCCC2)c2[nH]c(C3=N[C@H](CCC(=O)O)CS3)cc2c1 [Example 167, 3-[(R)-2-(7-cyclopentylamino-5-ethoxy-1H-indol-2-yl)-4,5-dihydro-thiazol-4-yl]-propionic acid]
25 | 43 nM | CCOC(=O)CC[C@@H]1CSC(c2cc3cc(OCC)cc(NC4CCCC4)c3[nH]2)=N1 [Example 166, 3-[(R)-2-(7-cyclopentylamino-5-ethoxy-1H-indol-2-yl)-4,5-dihydro-thiazol-4-yl]-propionic acid ethyl ester]
26 | 35 nM | CCOC(=O)C[C@@H]1CSC(c2cc3cc(OC)cc(NC4CCCC4)c3[nH]2)=N1 [Example 49, [(R)-2-(7-cyclopentylamino-5-methoxy-1H-indol-2-yl)-4,5-dihydro-thiazol-4-yl]-acetic acid ethyl ester]
27 | 52 nM | O=C(CO)N1CCN(CC[C@@H]2CSC(c3cc4cc(F)cc(NC5CCOCC5)c4[nH]3)=N2)CC1 [Example 140, 1-[4-(2-{(R)-2-[5-fluoro-7-(tetrahydro-pyran-4-ylamino)-1H-indol-2-yl]-4,5-dihydro-thiazol-4-yl}-ethyl)-piperazin-1-yl]-2-hydroxy-ethanone]
28 | 19 nM | CN(C)C1CCN(C(=O)C[C@@H]2CSC(c3cc4cc(Cl)cc(NC5CCCC5)c4[nH]3)=N2)C1 (stereo partly drawn) [Example 79, 2-[(R)-2-(5-chloro-7-cyclopentylamino-1H-indol-2-yl)-4,5-dihydro-thiazol-4-yl]-1-(3-dimethylamino-pyrrolidin-1-yl)-ethanone]
29 | 11 nM | CN1CCN(CC[C@@H]2CSC(c3cc4cc(Cl)cc(NC5CCCC5)c4[nH]3)=N2)CC1 [Example 100, (5-chloro-2-{(R)-4-[2-(4-methyl-piperazin-1-yl)-ethyl]-4,5-dihydro-thiazol-2-yl}-1H-indol-7-yl)-cyclopentyl-amine]
30 | 29 nM | COc1cc(NC2CCCC2)c2[nH]c(C3=N[C@H](CCN4CCN(C(=O)CO)CC4)CS3)cc2c1 [Example 146, 1-(4-{2-[(R)-2-(7-cyclopentylamino-5-methoxy-1H-indol-2-yl)-4,5-dihydro-thiazol-4-yl]-ethyl}-piperazin-1-yl)-2-hydroxy-ethanone]
31 | 9 nM | COc1cc(NC2CCCC2)c2[nH]c(C3=N[C@H](CC(=O)O)CS3)cc2c1 [Example 48, [(R)-2-(7-cyclopentylamino-5-methoxy-1H-indol-2-yl)-4,5-dihydro-thiazol-4-yl]-acetic acid]
